Laboratory results published in PMC10667816, “A Cell‐Penetrant Peptide Disrupting the Transcription Factor CP2c Complexes Induces Cancer‐Specific Synthetic Lethality” (Advanced Science, 2023).
Where a SMILES comes first, the peptide text is derived from it.

Columns and labels:
[1] = test system: hepatocellular carcinoma and breast cancer patient‐derived cancer cells; test: Sensitivity of patient‐derived cancer cells; assay type: cell-based, human; settings: preliminary data
Procedure: For primary cell culture, tumor tissue samples obtained from patients undergoing surgery were finely minced, washed with phosphate buffered saline (PBS) containing penicillin/streptomycin, and then treated with trypsin solution at 37 °C for up to 20 min. The resulting cell suspension was filtered through a strainer (BD Falcon, 352235). The filtered cells were maintained in EpiX media, which consists of keratinocyte serum free medium (KSFM; Gibco, 17005042) supplemented with 50 µg mL^−1 bovine pituitary extract (Gibco, 13028014), 5 ng mL^−1 human epidermal growth factor (EGF; Thermo Fisher, PHG0311L), 1 µM TGF beta inhibitor (A83‐01; Sigma–Aldrich, SML0788), 5 µM ROCK inhibitor (Y27632; Sigma–Aldrich, Y0503), and 3 µM isoproterenol (Sigma–Aldrich, I6504). The culture medium was refreshed daily. For organoid culture, portions of human tissue samples were separated and transported to the laboratory on ice within 1 h of removal from the patients in cold Hank's balanced salt solution (HBSS) with antibiotics. […]

CP2c complexes = CP2c complexes (Homo sapiens, UniProt Q12800); test: In vitro IP and pulldown assays of CP2c complexes; assay type: biochemical; settings: regardless of the presence of probe DNA
Chain of CP2c complexes (Q12800 whole entry, one chain of several): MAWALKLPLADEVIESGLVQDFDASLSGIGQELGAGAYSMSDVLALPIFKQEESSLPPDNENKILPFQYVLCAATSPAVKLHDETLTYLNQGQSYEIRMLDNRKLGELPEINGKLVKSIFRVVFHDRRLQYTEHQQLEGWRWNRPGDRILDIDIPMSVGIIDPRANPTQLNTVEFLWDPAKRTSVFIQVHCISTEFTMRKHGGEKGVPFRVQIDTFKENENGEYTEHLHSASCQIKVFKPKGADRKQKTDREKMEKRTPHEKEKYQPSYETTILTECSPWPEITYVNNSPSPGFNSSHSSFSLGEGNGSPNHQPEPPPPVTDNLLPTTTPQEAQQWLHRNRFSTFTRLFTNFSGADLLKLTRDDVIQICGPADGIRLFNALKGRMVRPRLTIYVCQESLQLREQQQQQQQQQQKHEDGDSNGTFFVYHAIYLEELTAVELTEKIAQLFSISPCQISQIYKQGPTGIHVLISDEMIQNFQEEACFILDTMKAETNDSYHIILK
Procedure: Cells were lysed with lysis buffer (50 mM Tris‐HCl, pH 7.4, 150 mM NaCl, 1 mM EDTA, 0.1% triton X‐100, and 1 mM PMSF) with freshly added 1 mM DTT and a protease inhibitor cocktail. Input samples (10% of whole lysate) were saved from each lysate for WB analysis. For immunoprecipitation, precleared extracts were incubated overnight at 4 °C with 10 µL Protein A/G agarose beads, pre‐incubated with 2 µg of the primary antibodies (Table S4, Supporting Information). The immune complexes were washed 3 times with lysis buffer, and bound proteins were eluted with 2X bed volume of 0.2 M glycine buffer, followed by neutralization with an equal volume of 1 M Tris‐HCl, pH 8.0. For Flag tag immunoprecipitation, precleared extracts were incubated with 2 µL of Flag‐M2 beads (Sigma–Aldrich, A2220) by rotating overnight at 4 °C. The immune complexes were washed 3 times with lysis buffer, bound proteins were eluted with 100 µg mL^−1 Flag peptide (Sigma–Aldrich, F4799). Precipitated proteins were analyzed using western blot.
Biotinylated‐DNA fragments or ‐peptides and GST‐fused CP2c, whole‐ or nuclear‐ extracts of MDA‐MB‐231 cells were used for the analyze the interaction of peptide or DNA with CP2c. Nuclear extracts were extracted by the method described elsewhere.^[ [14] ^] […] The radioactivity of the eluted probe was measured by scintillation counting. […]

SMILES | fraction of patient‐derived cancer cells showing sensitivity [1] | dissociation of CP2c complexes (CP2c complexes)
CC(=O)N[C@@H](CC(N)=O)C(=O)N[C@@H](Cc1ccc(O)cc1)C(=O)N1CCC[C@H]1C(=O)N[C@@H](CCC(N)=O)C(=O)N[C@@H](CCCNC(=N)N)C(=O)N1CCC[C@H]1C(=O)N[C@@H](CS)C(=O)N[C@@H](CCCNC(=N)N)C(=O)NCC(=O)N[C@@H](CC(=O)O)C(=O)N[C@@H](CCCCN)C(=O)NCC(=O)N1CCC[C@H]1C(=O)N[C@@H](CC(=O)O)C(=O)N[C@@H](CS)C(N)=O [ACP52C] (Ac-NYPQRPCRGDKGPDC-NH2) | over 85% | 
CCOc1ccccc1C1CC(=O)Nc2cc3c(cc21)OCO3 (centres unmarked) [FQI1, Factor Quinolinone Inhibitor 1, reference compound] |  | only slight perturbation of CP2c complexes
